Assay results as given in patent US12410171B2, “Tropomyosin receptor kinase (TRK) degradation compounds and methods of use” (Cullgen (Shanghai), Inc., priority 2020, dated 2025).

The compounds below were run against T1, TPM3-TRKA fusion protein (Homo sapiens, UniProt P04629) (assay: TPM3-TRKA fusion protein levels in KM12 cells (Western blot)). Conditions: 16 h; TPM3-TRKA degradation in KM12 cells at 10 nM compound, category of percentage degradation; read-out: Degradation (at 10 nM).
T1 construct: The resulted chimeric proteins always retain the kinase domain of TRK proteins; TPM3 (fusion partner, N-terminal part of tropomyosin alpha-3, P06753); endogenous in cells; host or cells: KM12 colon cancer cells; the other entry of the earlier key: TPM3 (P06753, Tropomyosin alpha-3 chain)
T1 sequence (P04629 with tags, fused parts or gaps): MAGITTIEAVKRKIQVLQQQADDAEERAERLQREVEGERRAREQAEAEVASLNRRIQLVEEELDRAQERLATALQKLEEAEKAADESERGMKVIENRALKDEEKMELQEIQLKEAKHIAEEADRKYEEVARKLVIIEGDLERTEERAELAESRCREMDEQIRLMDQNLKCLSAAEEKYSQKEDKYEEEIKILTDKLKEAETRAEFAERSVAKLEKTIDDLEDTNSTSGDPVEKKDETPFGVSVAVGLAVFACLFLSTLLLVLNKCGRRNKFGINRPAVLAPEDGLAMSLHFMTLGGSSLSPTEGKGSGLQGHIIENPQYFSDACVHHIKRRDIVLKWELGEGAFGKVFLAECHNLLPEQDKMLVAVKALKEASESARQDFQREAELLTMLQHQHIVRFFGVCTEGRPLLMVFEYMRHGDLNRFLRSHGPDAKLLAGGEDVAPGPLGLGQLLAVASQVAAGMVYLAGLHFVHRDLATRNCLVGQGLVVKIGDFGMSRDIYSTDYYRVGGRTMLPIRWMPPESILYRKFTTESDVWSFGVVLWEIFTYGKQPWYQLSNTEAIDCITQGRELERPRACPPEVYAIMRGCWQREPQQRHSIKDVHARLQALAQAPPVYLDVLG
Assay type: cell-based
Method: KM12 cells were treated with DMSO or indicated compounds at 100 nM for 16 hours.
KM12 cells were treated with DMSO or indicated compounds at 0. 1 nM, 1 nM or 10 nM for 16 hours.
KM12 cells were treated with DMSO or indicated compounds at various concentrations for 16 hours.
KM12 cells were treated with DMSO or indicated compounds at various concentrations for 4 hours.
KM12 cells (a cancer model comprising a colon cancer cell line) were treated with DMSO or indicated compounds at various concentrations for 4 hours.
KM12 cells were treated with heterobifunctional compounds or their corresponding control compounds at 10 nM or 100 nM for 16 hours.
KM12 cells were treated with heterobifunctional compounds or their corresponding control compounds at 0.4-30 nM for 8-16 hours. […] Cells were authenticated using the short tandem repeat (STR) assays. […] Stable cell lines were established by lentivirus transduction, selected and maintained in medium containing 1 μg/mL puromycin (Beyotime Biotechnology).
Cultured cells were washed with cold PBS once and lysed in cold RIPA buffer supplemented with protease inhibitors and phosphatase inhibitors (Beyotime Biotechnology). The solutions were then incubated at 4° C. for 30 minutes with gentle agitation to fully lyse cells. For tumor tissues, tumors were cut into small pieces, milled with cold RIPA buffer using a mechanical homogenizer and lysed for 1 hour at 4° C. Cell lysates were centrifuged at 13,000 rpm for 10 minutes at 4° C. and pellets were discarded. Total protein concentrations in the lysates were determined by BCA assays (Beyotime Biotechnology). Cell lysates were mixed with Laemmli loading buffer to 1× and heated at 99° C. for 5 min. Proteins were resolved on SDS-PAGE and visualized by chemiluminescence. Images were taken by a ChemiDoc MP Imaging system (Bio-Rad). Protein bands were quantitated using the software provided by Bio-Rad.

`O=C1CCC(N2C(=O)c3cccc(NCC(=O)N4CCN(c5ccc(C(=O)Nc6n[nH]c7ccc(Cc8cc(F)cc(F)c8)cc67)c(NC6CCOCC6)c5)CC4)c3C2=O)C(=O)N1` (stereo not drawn) [CPD-055, N-(5-(3,5-Difluorobenzyl)-1HI-indazol-3-yl)-4-(4-((2-(2,6-dioxopiperidin-3-yl)-1,3-dioxoisoindolin-4-yl)glycyl)piperazin-1-yl)-2-((tetrahydro-2H-pyran-4-yl)amino)benzamide] and `O=C1CCC(N2C(=O)c3cccc(NCCCCCCC(=O)N4CCN(c5ccc(C(=O)Nc6n[nH]c7ccc(Cc8cc(F)cc(F)c8)cc67)c(NC6CCOCC6)c5)CC4)c3C2=O)C(=O)N1` (stereo not drawn) [CPD-049, N—(S-(3,5-Difluorobenzyl)-1H-indazol-3-yl)-4-(4-(7-((2-(2,6-dioxopiperidin-3-yl)-1,3-dioxoisoindolin-4-yl)amino)heptanoyl)piperazin-1-yl)-2-((tetrahydro-2H-pyran-4-yl)amino)benzamide] cannot be ordered by percent degradation of TPM3-TRKA protein at 0.01 µM: greater than 80% for the first, greater than 80% for the second.

`O=C(CN1CCN(c2ccc(C(=O)Nc3n[nH]c4ccc(Cc5cc(F)cc(F)c5)cc34)c(NC3CCOCC3)c2)CC1)NCCOCCOCCOCCOCCOCCNc1ccc2c(c1)C(=O)N(C1CCC(=O)NC1=O)C2=O` (stereo not drawn) [TR-166, N-(5-(3,5-Difluorobenzyl)-1H-indazol-3-yl)-4-(4-(20-((2-(2,6-dioxopiperidin-3-yl)-1,3-dioxoisoindolin-5-yl)amino)-2-oxo-6,9,12,15,18-pentaoxa-3-azaicosyl)piperazin-1-yl)-2-((tetrahydro-28-pyran-4-yl)amino)benzamide] and `O=C(CN1CCN(c2ccc(C(=O)Nc3n[nH]c4ccc(Cc5cc(F)cc(F)c5)cc34)c(NC3CCOCC3)c2)CC1)NCCOCCOCCNc1ccc2c(c1)C(=O)N(C1CCC(=O)NC1=O)C2=O` (stereo not drawn) [TR-162, N-(5-(3,5-Difluorobenzyl)-1H-indazol-3-yl)-4-(4-(2-((2-(2-(2-((2-(2,6-dioxopiperidin-3-yl)-1,3-dioxoisoindolin-5-yl)amino)ethoxy)ethoxy)ethyl)amino)-2-oxocthyl)piperazin-1-yl)-2-((tetrahydro-2H-pyran-4-yl)amino)benzamide] cannot be ordered by percent degradation of TPM3-TRKA protein at 0.01 µM: greater than 80% for the first, greater than 80% for the second.

`O=C(CN1CCN(c2cccc(-c3cnc4ccc(N5CCC[C@@H]5c5cccc(F)c5)nn34)n2)CC1)NCCCNc1ccc2c(c1)C(=O)N(C1CCC(=O)NC1=O)C2=O` (stereo partly drawn) [TR-127, N-(3-((2-(2,6-dioxopiperidin-3-yl)-1,3-dioxoisoindolin-S-yl)amino)propyl)-2-(4-(6-(6-((R)-2-(3-fluorophenyl)pyrrolidin-1-yl)imidazo[1,2-b]pyridazin-3-yl)pyridin-2-yl)piperazin-1-yl)acetamide] and `O=C1CCC(N2C(=O)c3cccc(NCCCCC(=O)N4CCN(c5cccc(-c6cnc7ccc(N8CCC[C@@H]8c8cccc(F)c8)nn67)n5)CC4)c3C2=O)C(=O)N1` (stereo partly drawn) [CPD-014, 2-(2,6-Dioxopiperidin-3-yl)-4-((5-(4-(6-(6-((R)-2-(3-fluorophenyl)pyrrolidin-1-yl)imidazo[1,2-b]pyridazin-3-yl)pyridin-2-yl)piperazin-1-yl)-5-oxopentyl)amino) isoindoline-1,3-dione] cannot be ordered by percent degradation of TPM3-TRKA protein at 0.01 µM: greater than 80% for the first, greater than 80% for the second.

`O=C(CN1CCN(c2ccc(C(=O)Nc3n[nH]c4ccc(Cc5cc(F)cc(F)c5)cc34)c(NC3CCOCC3)c2)CC1)NCCCNc1ccc2c(c1)C(=O)N(C1CCC(=O)NC1=O)C2=O` (stereo not drawn) [TR-167, N-(5-(3,5-Difluorobenzyl)-1H-indazol-3-yl)-4-(4-(2-((3-((2-(2,6-dioxopiperidin-3-yl)-1,3-dioxoisoindolin-5-yl)amino)propyl)amino)-2-oxocthyl)piperazin-1-yl)-2-((tetrahydro-2H-pyran-4-yl)amino)benzamide] and `O=C(CN1CCN(c2ccc(C(=O)Nc3n[nH]c4ccc(Cc5cc(F)cc(F)c5)cc34)c(NC3CCOCC3)c2)CC1)NCCOCCOCCNc1cccc2c1C(=O)N(C1CCC(=O)NC1=O)C2=O` (stereo not drawn) [TR-153, N-(5-(3,5-Difluorobenzyl)-1H-indazol-3-yl)-4-(4-(2-((2-(2-(2-((2-(2,6-dioxopiperidin-3-yl)-1,3-dioxoisoindolin-4-yl)amino)ethoxy)ethoxy)ethyl)amino)-2-oxoethyl)piperazin-1-yl)-2-((tetrahydro-2H-pyran-4-yl)amino)benzamide] cannot be ordered by percent degradation of TPM3-TRKA protein at 0.01 µM: greater than 80% for the first, greater than 80% for the second.

`Cc1ncsc1-c1ccc(CNC(=O)[C@@H]2C[C@@H](O)CN2C(=O)[C@@H](NC(=O)CCOCCOCCOCCC(=O)N2CCN(c3ccc(C(=O)Nc4n[nH]c5ccc(Cc6cc(F)cc(F)c6)cc45)c(NC4CCOCC4)c3)CC2)C(C)(C)C)cc1` [CPD-039, (28,4R)-1-((S)-2-(tert-butyl)-16-(4-(4-((5-(3,5-Difluorobenzyl)-1H-indazol-3-yl)carbamoyl)-3-((tetrahydro-2H-pyran-4-yl)amino)phenyl)piperazin-1-yl)-4,16-dioxo-7,10,13-trioxa-3-azahexadecanoyl)-4-hydroxy-N-(4-(4-methylthiazol-5-yl)benzyl)pyrrolidine-2-carboxamide] and `Cc1ncsc1-c1ccc(CNC(=O)[C@@H]2C[C@@H](O)CN2C(=O)[C@@H](NC(=O)COCCOCCOCC(=O)N2CCN(c3ccc(C(=O)Nc4n[nH]c5ccc(Cc6cc(F)cc(F)c6)cc45)c(NC4CCOCC4)c3)CC2)C(C)(C)C)cc1` [CPD-058, (25,4R)-1-((S)-2-(tert-butyl)-14-(4-(4-((5-(3,5-Difluorobenzyl)-1H-indazol-3-yl)carbamoyl)-3-((tetrahydro-2H-pyran-4-yl)amino)phenyl)piperazin-1-yl)-4,14-dioxo-6,9,12-trioxa-3-azatetradecanoyl)-4-hydroxy-N-(4-(4-methylthiazol-5-yl)benzyl)pyrrolidine-2-carboxamide] cannot be ordered by percent degradation of TPM3-TRKA protein at 0.01 µM: less than 50% for the first, less than 50% for the second.

First: O=C1CCC(N2Cc3cc(CCCN4CCN(c5cccc(-c6cnc7ccc(N8CCC[C@@H]8c8cccc(F)c8)nn67)n5)CC4)ccc3C2=O)C(=O)N1 (stereo partly drawn) [TR-186, 3-(5-(3-(4-(6-(6-((R)-2-(3-fluorophenyl)pyrrolidin-1-yl)imidazo[1,2-b]pyridazin-3-yl)pyridin-2-yl)piperazin-1-yl)propyl)-1-oxoisoindolin-2-yl)piperidine-2,6-dione]
Second: O=C1CCC(N2C(=O)c3cccc(NCCCCCCC(=O)N4CCN(c5cccc(-c6cnc7ccc(N8CCC[C@@H]8c8cccc(F)c8)nn67)n5)CC4)c3C2=O)C(=O)N1 (stereo partly drawn) [CPD-009, 2-(2,6-Dioxopiperidin-3-yl)-4-((7-(4-(6-(6-((R)-2-(3-fluorophenyl)pyrrolidin-1-yl)imidazo[1,2-b]pyridazin-3-yl)pyridin-2-yl)piperazin-1-yl)-7-oxoheptyl)amino) isoindoline-1,3-dione]
The percent degradation of TPM3-TRKA protein at 0.01 µM of the first is higher: greater than 80% for the first, 50 to 80% for the second.

`Cc1ncsc1-c1ccc(CNC(=O)[C@@H]2C[C@@H](O)CN2C(=O)[C@@H](NC(=O)CCCCCCCC(=O)N2CCN(c3ccc(C(=O)Nc4n[nH]c5ccc(Cc6cc(F)cc(F)c6)cc45)c(NC4CCOCC4)c3)CC2)C(C)(C)C)cc1` [CPD-037, (25,4R)-1-((S)-2-(9-(4-(4-((5-(3,5-Difluorobenzyl)-1H-indazol-3-yl)carbamoyl)-3-((tetrahydro-2H-pyran-4-yl)amino)phenyl)piperazin-1-yl)-9-oxononanamido)-3,3-dimethylbutanoyl)-4-hydroxy-N-(4-(4-methylthiazol-S-yl)benzyl)pyrrolidine-2-carboxamide] and `Cc1ncsc1-c1ccc(CNC(=O)[C@@H]2C[C@@H](O)CN2C(=O)[C@@H](NC(=O)CCCCCCC(=O)N2CCN(c3cccc(-c4cnc5ccc(N6CCC[C@@H]6c6cccc(F)c6)nn45)n3)CC2)C(C)(C)C)cc1` [CPD-029, (25,4R)-1-((S)-2-(8-(4-(6-(6-((R)-2-(3-Fluorophenyl)pyrrolidin-1-yl)imidazo[1,2-b]pyridazin-3-yl)pyridin-2-yl)piperazin-1-yl)-8-oxooctanamido)-3,3-dimethylbutanoyl)-4-hydroxy-N-(4-(4-methylthiazol-5-yl)benzyl)pyrrolidine-2-carboxamide] fall in the same range of percent degradation of TPM3-TRKA protein at 0.01 µM: 50 to 80% for the first, 50 to 80% for the second.

Work on `O=C1CCC(N2C(=O)c3ccc(NCCOCCOCCOCCC(=O)N4CCN(c5ccc(C(=O)Nc6n[nH]c7ccc(Cc8cc(F)cc(F)c8)cc67)c(NC6CCOCC6)c5)CC4)cc3C2=O)C(=O)N1` (stereo not drawn) [TR-146, N-(5-(3,5-Difluorobenzyl)-1H-indazol-3-yl)-4-(4-(3-(2-(2-(2-((2-(2,6-dioxopiperidin-3-yl)-1,3-dioxoisoindolin-5-yl)amino)ethoxy)ethoxy)ethoxy)propanoyl)piperazin-1-yl)-2-((tetrahydro-2/-pyran-4-yl)amino)benzamide] yielded a percent degradation of TPM3-TRKA protein at 0.01 µM greater than 80%.
